Reference: ChEMBL document CHEMBL1133657, “Synthesis and pharmacological characterization of [(125)I]iodomethyllycaconitine ([(125)I]iodo-MLA). A new ligand for the alpha(7) nicotinic acetylcholine receptor” (J Med Chem, 2000)

Tests used:
Rattus norvegicus [1] = species on record: Rattus norvegicus; assay: Bmax value(fmol/mg )was evaluated in rat brain using [125I]iodo-MLA
Rattus norvegicus [2] = species on record: Rattus norvegicus; assay: Affinity constant Kd(nM) in rat brain cerebral cortex homogenates.
Rattus norvegicus [3] = species on record: Rattus norvegicus; assay: Bmax value(fmol/mg protein) was evaluated in rat brain using [3H]MLA

Row | SMILES | Bmax (Rattus norvegicus [1]) | Kd (Rattus norvegicus [2]) | Bmax (Rattus norvegicus [3])
1 | CCN1C[C@]2(COC(=O)c3cc([125I])ccc3N3C(=O)C[C@H](C)C3=O)CC[C@H](OC)[C@@]34[C@@H]5C[C@H]6[C@H](OC)[C@@H]5[C@](O)(C[C@@H]6OC)[C@](O)([C@@H](OC)[C@H]23)[C@@H]14 | 68 fmol/mg | – | –
2 | [3H]c1cccc(N2C(=O)C[C@H](C)C2=O)c1C(=O)OC[C@@]12CC[C@H](OC)[C@@]34[C@@H]5C[C@H]6[C@H](OC)[C@@H]5[C@](O)(C[C@@H]6OC)[C@](O)([C@@H](OC)[C@H]13)[C@H]4N(CC)C2 [METHYLLYCACONITINE[3H] MLA] | – | 1.9 nM | 65 fmol/mg
